# Measured values as given in patent US5171837A, “Peptide capable of binding interleukin 6 and an adsorbent comprising the peptide immobilized on a carrier” (Kuraray Co., Ltd., priority 1989, dated 1992).
# Non-standard residues stand in square brackets, D forms with d. Residues, ends and D or L forms follow the SMILES beside them. No end group written: not given here. *: point of attachment. X1 = NCCCCCCCCCCCCCCCCCC(=O)*; 12Ado = NCCCCCCCCCCCC(=O)O
# Target: T1, IL-6 (Homo sapiens, UniProt P05231)
# T1 construct: purchased Genzyme Corp
# Assay: Activity for inhibition of binding of IL-6 to receptor by peptide (IL-6 receptor expression cells, FITC labeled anti-IL-6 antibody)
# Settings: 5 μg of the peptide, 50 ng of IL-6, 10^5 IL-6 receptor expression cells, 4° C for one hour
# Procedure: A human lymphocyte fraction was obtained from human peripheral blood with Ficoll-Paque (manufactured by Pharmacia-LKB). The fraction was reacted with a cultured supernatant of Epstein-Barr Virus producing cell strain B958 to transform the human lymphocytes to obtain IL-6 receptor expression cells.
# 1 mg of anti-human IL-6 antibody [Rabbit Anti-human Interleukin-6, manufactured by Genzyme Corp.] was dissolved in a 0.05M carbonate buffer solution (pH: 9.5) and to the resulting solution was added 10 μg of FITC [Fluorescein isothiocyanate, manufactured by Sigma Corp.]. The mixture was stirred at 4° C. overnight. The resulting solution was passed through PD-10 column (manufactured by Pharmacia-LKB) to obtain FITC labeled anti-IL-6 antibody as a firstly eluted fraction.
# 10^5 IL-6 receptor expression cells were suspended in 0.5 % BSA (bovine serum albumin, manufactured by Sigma Corp.)-PBS (a phosphate buffer solution containing 0.15 M sodium chloride, pH 7.4) and to the resulting suspension were added 50 ng of IL-6 (Human recombinant interleukin-6, manufactured by Genzyme Corp.) and 5 μg of the peptide obtained in any one of Examples 1 to 96. The suspension was allowed to stand at 4° C for one hour. Then, after washing the cells centrifugally with 0.5% BSA-PBS three times (1200 rpm, 5 min.), 1 μg of FITC labeled anti-IL-6 antibody was added and the mixture was allowed to stand at 4° C. for 30 minutes. After washing with 0.5% BSA-PBS three times, the intensity of fluorescence of the cells was determined. The binding inhibition activity of the peptide of each Example was evaluated, by taking the value obtained without addition of the peptide as a control and taking the value- obtained without addition of IL-6 as a blank, according to the following formula: [formula]
# T1 sequence (P05231 30-212): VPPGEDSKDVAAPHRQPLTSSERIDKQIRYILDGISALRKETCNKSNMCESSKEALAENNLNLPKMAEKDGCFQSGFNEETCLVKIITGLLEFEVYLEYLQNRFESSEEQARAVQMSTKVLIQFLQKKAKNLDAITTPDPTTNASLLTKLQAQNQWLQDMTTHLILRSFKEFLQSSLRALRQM
row,Molecule,Binding inhibition activity (%)
1,CC(C)C[C@H](NC(=O)[C@H](Cc1c[nH]c2ccccc12)NC(=O)[C@H](CCCNC(=N)N)NC(=O)[C@@H]1CCCN1C(=O)[C@H](CC(N)=O)NC(=O)CCCCCCCCCCCCCCCCCN)C(=O)N[C@@H](CO)C(=O)N[C@H](C(=O)N[C@H](C(=O)N[C@@H](Cc1c[nH]c2ccccc12)C(=O)N[C@@H](CCC(N)=O)C(=O)N[C@@H](CC(=O)O)C(=O)N1CCC[C@H]1C(=O)N[C@@H](Cc1c[nH]cn1)C(=O)N[C@@H](CO)C(=O)NCC(=O)O)[C@@H](C)O)C(C)C [Example 52] (X1-NPRWLSVTWQDPHSG-OH),35%
2,CC(C)C[C@H](NC(=O)[C@H](CCC(=O)O)NC(=O)[C@H](Cc1ccccc1)NC(=O)[C@H](CCCNC(=N)N)NC(=O)[C@H](CC(C)C)NC(=O)[C@H](CCCNC(=N)N)NC(=O)[C@H](Cc1ccc(O)cc1)NC(=O)[C@H](Cc1ccccc1)NC(=O)[C@H](CO)NC(=O)[C@H](CO)NC(=O)[C@H](CC(N)=O)NC(=O)[C@H](Cc1c[nH]c2ccccc12)NC(=O)[C@H](CO)NC(=O)[C@H](Cc1c[nH]cn1)NC(=O)CCCCCCCCCCCN)C(=O)N[C@@H](CCCNC(=N)N)C(=O)N[C@@H](Cc1ccc(O)cc1)C(=O)N[C@@H](CCCNC(=N)N)C(=O)N[C@@H](C)C(=O)N[C@@H](CCC(=O)O)C(=O)N[C@@H](CCCNC(=N)N)C(=O)N[C@@H](CO)C(=O)N[C@@H](CCCCN)C(=O)N[C@@H](CCC(=O)O)C(=O)N[C@@H](CCC(=O)O)C(=O)N[C@@H](CCC(=O)O)C(=O)N[C@@H](CCC(=O)O)C(=O)N[C@@H](CCC(=O)O)C(=O)O [Example 59] (H-[12Ado]HSWNSSFYRLRFELRYRAERSKEEEEE-OH),60%
3,CC(C)C[C@H](NC(=O)[C@H](CCC(=O)O)NC(=O)[C@H](Cc1ccccc1)NC(=O)[C@H](CCCNC(=N)N)NC(=O)[C@H](CC(C)C)NC(=O)[C@H](CCCNC(=N)N)NC(=O)[C@H](Cc1ccc(O)cc1)NC(=O)[C@H](Cc1ccccc1)NC(=O)[C@H](CO)NC(=O)[C@H](CO)NC(=O)[C@H](CC(N)=O)NC(=O)[C@H](Cc1c[nH]c2ccccc12)NC(=O)[C@H](CO)NC(=O)[C@H](Cc1c[nH]cn1)NC(=O)CCCCCCCCCCCCCCCCCN)C(=O)N[C@@H](CCCNC(=N)N)C(=O)N[C@@H](Cc1ccc(O)cc1)C(=O)N[C@@H](CCCNC(=N)N)C(=O)N[C@@H](C)C(=O)N[C@@H](CCC(=O)O)C(=O)N[C@@H](CCCNC(=N)N)C(=O)N[C@@H](CO)C(=O)N[C@@H](CCCCN)C(=O)NCC(=O)O [Example 60] (X1-HSWNSSFYRLRFELRYRAERSKG-OH),58%
4,CC(C)C[C@H](NC(=O)[C@H](CCC(=O)O)NC(=O)[C@H](Cc1ccccc1)NC(=O)[C@H](CCCNC(=N)N)NC(=O)[C@H](CC(C)C)NC(=O)[C@H](CCCNC(=N)N)NC(=O)[C@H](Cc1ccc(O)cc1)NC(=O)[C@H](Cc1ccccc1)NC(=O)[C@H](CO)NC(=O)[C@H](CO)NC(=O)[C@H](CC(N)=O)NC(=O)[C@H](Cc1c[nH]c2ccccc12)NC(=O)[C@H](CO)NC(=O)[C@H](Cc1c[nH]cn1)NC(=O)[C@@H]1CCCN1C(=O)[C@H](CC(=O)O)NC(=O)CCCCCCCCCCCN)C(=O)N[C@@H](CCCNC(=N)N)C(=O)N[C@@H](Cc1ccc(O)cc1)C(=O)N[C@@H](CCCNC(=N)N)C(=O)N[C@@H](C)C(=O)N[C@@H](CCC(=O)O)C(=O)N[C@@H](CCCNC(=N)N)C(=O)N[C@@H](CO)C(=O)N[C@@H](CCCCN)C(=O)N[C@@H](CCC(=O)O)C(=O)N[C@@H](CCC(=O)O)C(=O)N[C@@H](CCC(=O)O)C(=O)N[C@@H](CCC(=O)O)C(=O)N[C@@H](CCC(=O)O)C(=O)O [Example 75] (H-[12Ado]DPHSWNSSFYRLRFELRYRAERSKEEEEE-OH),63%
5,CC(C)C[C@H](NC(=O)[C@H](CCC(=O)O)NC(=O)[C@H](Cc1ccccc1)NC(=O)[C@H](CCCNC(=N)N)NC(=O)[C@H](CC(C)C)NC(=O)[C@H](CCCNC(=N)N)NC(=O)[C@H](Cc1ccc(O)cc1)NC(=O)[C@H](Cc1ccccc1)NC(=O)[C@H](CO)NC(=O)[C@H](CO)NC(=O)[C@H](CC(N)=O)NC(=O)[C@H](Cc1c[nH]c2ccccc12)NC(=O)[C@H](CO)NC(=O)[C@H](Cc1c[nH]cn1)NC(=O)[C@@H]1CCCN1C(=O)[C@H](CC(=O)O)NC(=O)[C@H](CCC(N)=O)NC(=O)[C@H](Cc1c[nH]c2ccccc12)NC(=O)CCCCCCCCCCCN)C(=O)N[C@@H](CCCNC(=N)N)C(=O)N[C@@H](Cc1ccc(O)cc1)C(=O)N[C@@H](CCCNC(=N)N)C(=O)N[C@@H](C)C(=O)N[C@@H](CCC(=O)O)C(=O)N[C@@H](CCCNC(=N)N)C(=O)N[C@@H](CO)C(=O)N[C@@H](CCCCN)C(=O)N[C@@H](CCC(=O)O)C(=O)N[C@@H](CCC(=O)O)C(=O)N[C@@H](CCC(=O)O)C(=O)N[C@@H](CCC(=O)O)C(=O)N[C@@H](CCC(=O)O)C(=O)O [Example 91] (H-[12Ado]WQDPHSWNSSFYRLRFELRYRAERSKEEEEE-OH),60%
6,DDDDDDPHSWNSSFYRLRFELRYRAERSKAAG-NH2 [Example 80],59%
7,DDDDDNPRWLSVTWQDPHSAAG-NH2 [Example 56],25%
8,DDDDDPHSWNSSFYRLRFELRYRAERSKAAG-NH2 [Example 72],57%
9,DDDDDQDPHSWNSSFYRLRFELRYRAERSKAAG-NH2 [Example 88],66%
10,DDDDDRKFQNSPAEDFQEPCQYSQESAAG-NH2 [Example 24],55%
11,DDDDDWNSSFYRLRFELRYRAERSKAAG-NH2 [Example 40],37%
12,DDDDDWQDPHSWNSSFYRLRFELRYRAERSKAAG-NH2 [Example 96],52%
13,EEEHSWNSSFYRLRFELRYRAERSKKG-NH2 [Example 63],51%
14,EEETSLPGDSVTLTCPGVEPEDKG-NH2 [Example 7],38%
15,EEEWQDPHSWNSSFYRLRFELRYRAERSKKG-NH2 [Example 95],65%
16,GTVHLLVDVPPEEPQLSCFRK [Example 13],25%
17,H-Thr-Ser-Leu-Pro-Gly-Ser-Val-Thr-Leu-Thr-Cys-Pro-Gly-Val-Glu-Pro-Glu-Asp- Lys-OH (H-TSLPGSVTLTCPGVEPEDK-OH) [Example 1],38%
18,HSWNSSFYRLRFELRYRAERSK [Example 61],45%
19,HSWNSSFYRLRFELRYRAERSKK [Example 57],63%
20,KDPHSWNSSFYRLRFELRYRAERSKD-NH2 [Example 78],60%
21,KGTVHLLVDVPPEEPQLSCFRKD-NH2 [Example 14],32%
22,KHSWNSSFYRLRFELRYRAERSKD-NH2 [Example 62],50%
23,KKDPHSWNSSFYRLRFELRYRAERSK [Example 74],70%

# Now from value to molecule:
row,Binding inhibition activity (%),Molecule
1,62%,CC(C)C[C@H](NC(=O)[C@H](CCC(=O)O)NC(=O)[C@H](Cc1ccccc1)NC(=O)[C@H](CCCNC(=N)N)NC(=O)[C@H](CC(C)C)NC(=O)[C@H](CCCNC(=N)N)NC(=O)[C@H](Cc1ccc(O)cc1)NC(=O)[C@H](Cc1ccccc1)NC(=O)[C@H](CO)NC(=O)[C@H](CO)NC(=O)[C@H](CC(N)=O)NC(=O)[C@H](Cc1c[nH]c2ccccc12)NC(=O)[C@H](CO)NC(=O)[C@H](Cc1c[nH]cn1)NC(=O)[C@@H]1CCCN1C(=O)[C@H](CC(=O)O)NC(=O)[C@H](CCC(N)=O)NC(=O)[C@H](Cc1c[nH]c2ccccc12)NC(=O)CCCCCCCCCCCCCCCCCN)C(=O)N[C@@H](CCCNC(=N)N)C(=O)N[C@@H](Cc1ccc(O)cc1)C(=O)N[C@@H](CCCNC(=N)N)C(=O)N[C@@H](C)C(=O)N[C@@H](CCC(=O)O)C(=O)N[C@@H](CCCNC(=N)N)C(=O)N[C@@H](CO)C(=O)N[C@@H](CCCCN)C(=O)NCC(=O)O [Example 92] (X1-WQDPHSWNSSFYRLRFELRYRAERSKG-OH)
2,31%,DDDDDGTVHLLVDVPPEEPQLSCFRKAAG-NH2 [Example 16]
3,55%,DDDDDHSWNSSFYRLRFELRYRAERSKAAG-NH2 [Example 64]
4,44%,DDDDDQALTTNKDDDNILFRDSAAAG-NH2 [Example 32]
5,37%,DDDDDTSLPGDSVTLTCPGVEPEDAAG-NH2 [Example 8]
6,58%,DPHSWNSSFYRLRFELRYRAERSK [Example 77]
7,71%,DPHSWNSSFYRLRFELRYRAERSKK [Example 73]
8,62%,EEEDPHSWNSSFYRLRFELRYRAERSKKG-NH2 [Example 79]
9,30%,EEEGTVHLLVDVPPEEPQLSCFRKKG-NH2 [Example 15]
10,28%,EEENPRWLSVTWQDPHSKG-NH2 [Example 55]
11,60%,EEEPHSWNSSFYRLRFELRYRAERSKKG-NH2 [Example 71]
12,72%,EEEQDPHSWNSSFYRLRFELRYRAERSKKG-NH2 [Example 87]
13,58%,EEERKFQNSPAEDFQEPCQYSQESKG-NH2 [Example 23]
14,58%,EEEWNSSFYRLRFELRYRAERSKKG-NH2 [Example 39]
15,30%,GTVHLLVDVPPEEPQLSCFRKK [Example 9]
